Patent publication US20070073056A1, “4-Substituted Pyrazoline Compounds, their Preparation and Use as Medicaments” (LABORATORIOS DEL DR. ESTEVE, S.A., priority 2005, published 2007)

Tests used:
CB1-receptor [1] = biological target: CB1-receptor (UniProt P20272); assay: binding of the pyrazoline compounds to CB1-receptors (Pharmacological Methods, Part I); design: IC50; species or system human or rat; conditions: radioligand [3H]-CP55940, read-out: IC50
Procedure: I. In-vitro Determination of Affinity to CB1/CB2-Receptors
The in-vitro determination of the affinity of the inventive 4-substituted pyrazoline compounds to CB1/CB2-Rezeptors is carried out as described in the publication of Ruth A. Ross, Heather C. Brockie et al., “Agonist-inverse agonist characterisation at CB1 and CB2 cannabinoid receptors of L-759633, L759656 and AM630”, British Journal of Pharmacology, 126, 665-672, (1999), whereby the transfected human CB1 and CB2 receptors of Receptor Biology, Inc. are used. The radioligand used for both receptors is [^3H]-CP55940. The respective parts of the description is hereby incorporated by reference and forms part of the present disclosure.
Rat Cerebellum CB1 Binding
Binding affinity to CB1 receptor was evaluated according to a modification of the method described by Govaerts et al., Eur J Pharmac Sci 23, 233-243 (2004). The respective parts of the description is hereby incorporated by reference and forms part of the present disclosure.
Briefly, cerebellum from male wistar rats (250-300 g) were carefully dissected on ice and homogenates were prepared with Potter-Helveheim in a cold 50 mM Tris-HCl solution containing 5 mM MgCl2, 1 mM EDTA and 0.25 M sucrose, pH 7.4. The suspension was centrifuged at […] for 5 minutes. The supernatants were collected and centrifuged 50,000×g for 15 minutes. The resulting pellets were then resuspended in Tris-HCl buffer without sucrose, homogenized and incubated for 15 min at 37° C. in an orbital shaker bath and centrifuged again at 50,000×g for 15 min. Pellets were weighted, resuspended in Tris-HCl buffer without sucrose, homogenized with Ultraturrax at 13,500 rpm for 3×5 seconds and alicuoted in 0.9 ml volumes in Eppendorf tubes. Alicuotes were centrifuged at 20,800×g for 5 minutes, supernatants discarded and pellets were frozen at −80° C. until use. Total protein concentration was determined using the Bio-Rad Lowry method based kit. Competitive binding experiments were performed in presence of 1 nM [^3H]-CP 55,940 in siliconized glass tubes containing 100 μg protein/tube resuspended in 1 ml final volume of 50 mM Tris-HCl, 5 mM MgCl2, 1 mM EDTA, 0.5% (w/v) bovine serum albumin, pH 7.4. Compounds were present at various concentrations and the non specific binding was determined in the presence of 10 μM HU-210. After 1 hour incubation at 30° C., the suspension was rapidly filtered through 0.5% PEI pre-treated GF/B fiber filters on a 96-well harvester and washed 3 times with 3 ml ice-cold binding buffer without bovine serum albumin. Radioactivity on filters was measured with Wallac Winspectral 1414 counter by liquid scintillation in 6 ml Ecoscint H (National Diagnostics, U.K.). Assays were made in triplicates.
Binding data were analyzed by non-linear regression with the software GraphPad Prism Version 3.03.
The binding of the pyrazoline compounds of general formula I to CB1-receptors was determined according to the method described in the section Pharmacological Methods, Part I.

[2] = biological target: recombinant human cannabinoid 1 receptor (CB1) (Homo sapiens, UniProt P21554); assay: [35S]GTPγS binding assay, antagonism to CB1-receptor (Pharmacological methods, part V); format: biochemical; conditions: compound at 1 μM against agonist WIN 55,212-2; 100% = effect of Rimonabant (1 μM); CHO membranes
Procedure: V. In vitro Determination of Antagonism to CB1-Receptor
Chinese hamster ovary (CHO) cells stably expressing recombinant human cannabinoid 1 receptor (CB1) were cultured in nutrient mixture Ham's F 12 supplemented with 10% heat-inactivated fetal bovine serum, 2 mM L-glutamine, 50 U/ml penicillin, 50 U/ml streptomycin and 0.5 mg/ml geneticin. In order to obtain cells, culture flasks were washed twice with phosphate buffered saline and scraped. Then, cells were collected by centrifugation (200×g, 10 min) and stored dry at −80° C. Cells were homogenized in ice-cold 20 mM HE PES, 10 mM EDTA (pH 7.5) and centrifuged at 40,000×g for 15 min at 4° C. The pellet was resuspended in 20 mM HEPES, 0.1 mM EDTA (pH 7.5) and centrifuged for 15 min at 4° C. The final pellet was resuspended in 20 mM HEPES, 0.1 mM EDTA (pH 7.5), and divided in aliquots and stored at −80° C. until use.
[^35S]GTPγS Binding Assay:
The reaction was performed in 96-well plates. […] The incubation was terminated by rapid filtration through Millipore Multiscreen glass fiber FB, and rinsed two-times with ice-cold assay buffer. Filter plates were dried and 30 μl of scintillation liquid was added. Radioactivity was determined using Wallac Microbeta Trilux. Each experiment was performed at least in duplicate.
The average of basal [35S]GTPγS binding was subtracted from all binding data.
The antagonism of the pyrazoline compounds of general formula I to the CB1-receptor was determined according to the method described in Pharmacological methods, part V (table 2).

CB1-receptor [3] = biological target: CB1-receptor (UniProt P20272); assay: binding of the pyrazoline compounds to CB1-receptors (Pharmacological Methods, Part I); design: other: 10^−7 M; other: 10^−8 M; species or system human or rat
Summary of the method: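 Rat cerebellum membranes (male Wistar), 100 μg protein, competed against 1 nM [3H]-CP 55,940 in 50 mM Tris-HCl, 5 mM MgCl2, 1 mM EDTA, 0.5% BSA, pH 7.4; 1 h at 30 °C. Non-specific binding with 10 μM HU-210; filtration and scintillation counting, triplicates, non-linear regression.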

recombinant human cannabinoid 1 receptor (CB1), sequence (P21554 whole entry): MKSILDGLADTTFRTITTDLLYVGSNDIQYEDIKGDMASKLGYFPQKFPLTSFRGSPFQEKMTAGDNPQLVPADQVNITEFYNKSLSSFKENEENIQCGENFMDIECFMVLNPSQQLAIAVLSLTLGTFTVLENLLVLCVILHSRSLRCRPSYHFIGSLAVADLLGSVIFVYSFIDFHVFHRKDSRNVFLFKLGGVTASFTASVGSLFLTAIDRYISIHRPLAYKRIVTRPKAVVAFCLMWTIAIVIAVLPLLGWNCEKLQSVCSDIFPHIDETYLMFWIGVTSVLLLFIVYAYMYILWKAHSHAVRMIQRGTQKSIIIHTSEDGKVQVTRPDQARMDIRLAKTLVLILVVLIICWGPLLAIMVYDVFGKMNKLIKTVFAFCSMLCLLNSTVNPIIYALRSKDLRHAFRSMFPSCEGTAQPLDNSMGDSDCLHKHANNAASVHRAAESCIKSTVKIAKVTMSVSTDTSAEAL

SMILES	IC50 (CB1-receptor [1])	Antagonism [2]	Inhibition (CB1-receptor [3]; 10^−7 M)	Inhibition (CB1-receptor [3]; 10^−8 M, in %)
C[C@@H]1C(C(=O)NN2CCCCC2)=NN(c2ccc(Cl)cc2Cl)[C@@H]1c1cccs1.Cl (relative stereo) [Example 430, cis-1-(2,4-dichlorophenyl)-4-methyl-N-(piperidin-1-yl)-5-(thiophen-2-yl)-4,5-dihydro-1H-pyrazole-3-carboxamide hydrochloride]	> 1000 nM	23%		
C[C@H]1C(C(=O)NN2CCCCC2)=NN(c2ccc(Cl)cc2Cl)[C@H]1c1ccc(Br)s1 (relative stereo) [Example 70, cis-5-(5-Bromo-thiophen-2-yl)-1-(2,4-dichloro-phenyl)-4-methyl-4,5-dihydro-1H-pyrazole-3-carboxylic acid piperidin-1-ylamide]		81%		
C[C@@H]1C(C(=O)NN2CCCCC2)=NN(c2ccc(Cl)cc2Cl)[C@@H]1c1ccccc1 (relative stereo) [Example 375, cis-1-(2,4-dichlorophenyl)-4-methyl-5-phenyl-N-(piperidin-1-yl)-4,5-dihydro-1H-pyrazole-3-carboxamide]	140 nM	58%		
C[C@H]1C(C(=O)O)=NN(c2ccc(Cl)cc2Cl)[C@H]1c1ccc(Cl)cc1 (racemic) [Example 19, cis-5-(4-Chloro-phenyl)-1-(2,4-dichloro-phenyl)-4-methyl-4,5-dihydro-1H-pyrazole-3-carboxylic acid]		−18%	−3.6%	−0.7
C[C@@H]1C(C(=O)NN2CCCCC2)=NN(c2ccc(Cl)cc2Cl)[C@H]1c1ccccc1 (relative stereo) [Example 376, trans-1-(2,4-dichlorophenyl)-4-methyl-5-phenyl-N-(piperidin-1-yl)-4,5-dihydro-1H-pyrazole-3-carboxamide]	70.8 nM	75%		
CC[C@@H]1C(C(=O)NN2CCCCC2)=NN(c2ccc(Cl)cc2Cl)[C@@H]1c1ccc(Cl)cc1 (relative stereo) [Example 432, cis-5-(4-chlorophenyl)-1-(2,4-dichlorophenyl)-4-ethyl-N-(piperidin-1-yl)-4,5-dihydro-1H-pyrazole-3-carboxamide]	89 nM	89%		
